Publication PMC5855801, “Benzothiophenone Derivatives Targeting Mutant Forms of Estrogen Receptor-α in Hormone-Resistant Breast Cancers” (International Journal of Molecular Sciences, 2018)
Where two headings read alike, the source gives them in different places.

How the values were obtained:
ERα [1] = target: T1, ERα (Homo sapiens, UniProt P03372); design: method as in PMID 25848700; settings: estrogen-sensitive T47DKBluc cells; previously reported; read-out: IC50 of previously-reported template compound; cited from earlier work
T1 construct: ERα-positive T47DKBluc cells were grown in phenol red-free RPMI 1640; endogenous in cells; host or cells: T47DKBluc (ATCC CRL-2865)
T1 sequence (P03372 1-595): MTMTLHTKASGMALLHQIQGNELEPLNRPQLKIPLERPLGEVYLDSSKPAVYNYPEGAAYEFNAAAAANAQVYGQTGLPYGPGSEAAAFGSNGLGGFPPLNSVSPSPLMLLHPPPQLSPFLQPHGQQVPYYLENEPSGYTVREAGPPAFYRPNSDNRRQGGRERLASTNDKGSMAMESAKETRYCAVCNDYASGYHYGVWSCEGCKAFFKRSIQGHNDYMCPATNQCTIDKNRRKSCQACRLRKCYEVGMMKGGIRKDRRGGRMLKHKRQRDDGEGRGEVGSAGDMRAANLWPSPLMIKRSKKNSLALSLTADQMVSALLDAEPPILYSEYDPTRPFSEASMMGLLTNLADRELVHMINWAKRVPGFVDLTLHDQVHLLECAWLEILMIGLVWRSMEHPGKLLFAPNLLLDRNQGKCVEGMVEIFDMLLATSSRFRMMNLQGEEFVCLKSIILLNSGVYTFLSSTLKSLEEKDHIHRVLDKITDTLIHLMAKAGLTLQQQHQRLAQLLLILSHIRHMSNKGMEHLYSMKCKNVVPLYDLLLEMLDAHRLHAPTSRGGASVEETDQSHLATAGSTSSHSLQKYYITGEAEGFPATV

[2] = target: T2, ERα-LBD and FL-PGC1α peptide (Homo sapiens, UniProt P03372); assay: LanthaScreen TR-FRET ER Alpha coactivator displacement assay; format: biochemical; settings: three-fold dilution range, dose-dependent
T2 construct: it was incubated with GST-tagged ERα-LBD (final concentration, 7.25 nM); purchased Life Technologies PV4544
T2 sequence (P03372 311-547 limits assumed): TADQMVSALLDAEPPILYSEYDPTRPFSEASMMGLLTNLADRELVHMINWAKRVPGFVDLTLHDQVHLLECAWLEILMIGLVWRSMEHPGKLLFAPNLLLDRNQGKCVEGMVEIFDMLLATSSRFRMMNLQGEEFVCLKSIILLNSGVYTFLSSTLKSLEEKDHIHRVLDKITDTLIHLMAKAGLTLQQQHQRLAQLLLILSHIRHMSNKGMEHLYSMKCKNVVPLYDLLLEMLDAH
Description: The LanthaScreen TR-FRET ER Alpha Coactivator Assay kit (PV4544; Life Technologies) was used as per the manufacturer’s instructions and described previously. To assess the binding of VPC-16464 to the AF2 site, it was incubated with GST-tagged ERα-LBD (final concentration, 7.25 nM) in the presence of a fluorescently-labelled co-activator peptide (fluorescein-PGC-1α) at a final concentration of 250 nM, terbium (Tb)-labelled anti-GST antibody (final concentration, 5 nM) and E2 (final concentration, EC80 […]). Cold SRC-2–3 and PGC-1α peptides were used as positive controls for AF2 site-specific binding. TR-FRET was analysed on a Synergy 4 hybrid microplate reader (BioTek, Winooski, VT, USA) with the settings at 340-nm excitation and 495- and 520-nm emission. The emission ratio (520:495) was analysed and plotted.

ERα LBD = target: T3, ERα LBD (Homo sapiens, UniProt P03372); assay: Biolayer interferometry (BLI) direct binding assay; settings: biotinylated ERα LBD on streptavidin sensor, 3–100 μM
T3 construct: ERα LBD (amino acids 302–552) was cloned into the pAN4 AviTag™ Vector; made in house
T3 sequence (P03372 302-552): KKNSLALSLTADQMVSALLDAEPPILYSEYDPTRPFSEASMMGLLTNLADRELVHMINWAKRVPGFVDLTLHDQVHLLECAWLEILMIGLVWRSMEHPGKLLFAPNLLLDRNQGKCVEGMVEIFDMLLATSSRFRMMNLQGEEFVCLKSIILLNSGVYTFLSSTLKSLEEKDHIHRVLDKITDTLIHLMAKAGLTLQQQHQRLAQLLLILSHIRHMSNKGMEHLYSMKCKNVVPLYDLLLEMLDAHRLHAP
Description: The direct binding of small molecules to the ERα-LBD was quantified by BLI using an Octet RED apparatus (Pall ForteBio, Menlo Park, CA, USA). ERα LBD (amino acids 302–552) was cloned into the pAN4 AviTag™ Vector, (Avidity, Aurora, CO, USA). Biotinylated ERα-LBD was purified as described previously. Biotinylated protein (bERα LBD at 0.05 mg/mL) was bound to the super streptavidin sensors (Pall ForteBio) overnight at 4 °C in assay buffer (20 mM Tris, pH 7.5, 500 mM NaCl, 0.2 mM tris(2-carboxyethyl)phosphine TCEP, 0.02 mM E2, 5% glycerol and 5% dimethyl sulfoxide (DMSO). The compounds were dissolved in the assay buffer in a two-fold dilution series ranging from 3.1–100 μM. In all experiments, a known AF2-interacting peptide, PGC-1α (Elim Biopharmaceuticals, Hayward, CA, USA) was used as a control to confirm the functionality of the bERα LBD.

ERα [3] = target: T1, ERα; assay: Estrogen-responsive luciferase reporter transcriptional assay in T47DKBluc cells; format: cell-based; settings: 1 nM E2, 24 h; for IC50: read-out: IC50 against ERα in the luciferase reporter-based transcriptional assay
Description: T47DKBluc cells (ATCC® CRL-2865^TM, Manassa, VA, USA) stably transfected with a 3X-ERE–promoter–luciferase reporter gene construct, pGL2.TATA.Inr.luc.neo [38], were used to measure inhibition of ERα-driven transcriptional activity of the luciferase reporter.
This assay was performed as described previously. Briefly, ERα-positive T47DKBluc cells were grown in phenol red-free RPMI 1640 supplemented with 10% CSS for 5 days. The cells were seeded on 96-well plates (2 × 10^4 cells/well). After 24 h, the cells were treated with test compounds in the presence of 1 nM E2. Twenty four hours post-treatment, the cells were lysed with 50 μL of 1× passive lysis buffer (Promega, Madison, WI, USA). Twenty microliters of the lysate from each treatment were transferred onto a white, 96-well, flat-bottomed plate (Corning Life Sciences, Corelle, NY, USA), and the luminescent signal was measured after adding 50 μL of the luciferase assay reagent (Promega, Madison, WI, USA) on a Tecan M200Pro microplate reader (Tecan, Menedorf, Switzerland). Differences in growth were normalised against total protein concentration, which was measured by the bicinchoninic acid (BCA) assay.

SMILES	Direct binding to ERα LBD (BLI) (ERα LBD)	IC50 (ERα [3]) [µM]	further results
CCOc1cc(Br)cc(/C=N/NC(=O)c2ccc3c(c2)OCCO3)c1O [VPC-16230]	–	–	IC50 (ERα [1]): 5.8 µM
CC(=O)N(/N=C1\Sc2ccccc2C1=O)c1ccccc1Cl [VPC-16464]	direct, reversible binding	2.7	Displacement of FL-PGC1α peptide from ERα-LBD AF2 site (TR-FRET) [2]: successfully displaced
CC(=O)N(/N=C1\Cc2ccccc2C1=O)c1ccccc1Cl [VPC-16600]	abolished	–	IC50 against ERα in the luciferase reporter-based transcriptional assay (ERα [3]): Inactive
CC(=O)N(/N=C1\Oc2ccccc2C1=O)c1ccccc1Cl [VPC-16602]	abolished	–	IC50 against ERα in the luciferase reporter-based transcriptional assay (ERα [3]): Inactive
CC(=O)N(/N=C1\Sc2c(F)cccc2C1=O)c1ccccc1Cl [VPC-16607]	–	2.9	–
CC(=O)N(/N=C1\Sc2ccccc2C1=O)c1cccc(C)c1 [compound 16457]	–	3.78	–
CC(=O)N(/N=C1\Sc2ccccc2C1=O)c1ccc(C)cc1 [compound 16475]	–	12.3	–
CC(=O)N(/N=C1\Sc2ccccc2C1=O)c1ccc(C)c(C)c1 [compound 16484]	–	9.83	–
CC(=O)N(/N=C1\Sc2ccccc2C1=O)c1ccccc1F [compound 16487]	–	4.64	–
